Test results: article PMC8151276, “An Integrated Approach toward NanoBRET Tracers for Analysis of GPCR Ligand Engagement” (Molecules, 2021)

Key:
Assay type in all cases: binding
[1] = target: T1, FZD9 (Homo sapiens, UniProt O00144); test: NanoBRET screen HiBiT-FZD9 in HEK293
T1 construct: purchased Promega (in-house HiBiT-GPCR construct library, NanoBRET)
T1 sequence (O00144 23-591): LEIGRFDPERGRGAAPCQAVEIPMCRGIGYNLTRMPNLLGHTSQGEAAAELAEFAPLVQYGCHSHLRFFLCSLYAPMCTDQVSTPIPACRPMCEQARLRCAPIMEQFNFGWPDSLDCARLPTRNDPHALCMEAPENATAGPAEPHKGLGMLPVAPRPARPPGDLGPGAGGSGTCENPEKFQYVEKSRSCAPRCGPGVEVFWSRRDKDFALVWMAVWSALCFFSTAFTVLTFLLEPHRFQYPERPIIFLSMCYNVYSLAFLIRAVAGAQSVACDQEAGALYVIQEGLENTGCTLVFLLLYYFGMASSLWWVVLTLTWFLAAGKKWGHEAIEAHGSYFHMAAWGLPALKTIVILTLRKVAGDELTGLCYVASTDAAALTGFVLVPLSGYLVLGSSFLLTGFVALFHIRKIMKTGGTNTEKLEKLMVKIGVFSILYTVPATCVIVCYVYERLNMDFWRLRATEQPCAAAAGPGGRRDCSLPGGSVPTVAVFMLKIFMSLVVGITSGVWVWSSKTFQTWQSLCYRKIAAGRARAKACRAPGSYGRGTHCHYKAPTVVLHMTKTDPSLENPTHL
Protocol: (§1) Each tracer candidate was screened across the entire library of HiBiT-GPCR constructs using NanoBRET as the detection modality. As depicted in Figure 4A, the specificity of interactions was evaluated through decrease in BRET due to competitive displacement of a bound tracer by excess parental compound. Each tracer was analyzed for binding to each HiBiT-GPCR fusion in the absence and in the presence of competing parental compound. Briefly, HEK293 cells were transfected with HiBiT-GPCR constructs diluted into promoterless DNA to reduce expression and maximize translocation to the cell surface. Each tracer candidate was then screened at concentrations of 1 μM and 0.1 μM across cells expressing these fusions. Cells were treated for 1.5 h with tracer either alone or in the presence of 20 μM competing parental compound (i.e., control). BRET was measured upon addition of purified LgBiT and subsequent complementation with HiBiT genetically fused to a GPCR. The specificity of interactions was assessed through a decrease in BRET signal due to competitive displacement of the bound tracer. To further gauge the robustness of these interactions, the fold response over the control (i.e., BRETtracer/BRETcontrol) was calculated. We chose a 1.5-fold response, which translates to ≥7-fold signal over noise as the minimal threshold required to score an interaction as positive. […]. Below we highlight the screening results obtained for our exemplary fluorescent tracers based on Clozapine, Amitriptyline and AZD1283.
(§2) HiBiT-GPCR DNA constructs were diluted in 10 mM Tris pH 8 to a final concentration of 0.01 μg/μL, arrayed in 96-well plates and stored at −20 °C. For transfection, HEK293 cells were suspended in Opti-MEM (without phenol red) supplemented with 2% fetal bovine serum (Seradigm) and 100 units/mL penicillin–streptomycin (Gibco) at a final concentration of 220,000 cells/mL and dispensed into white 96-well plates at 90 μL/well. Subsequent transfections and screens were carried using an Agilent Bravo Automated Liquid Handling Platform. First, the 96-well HiBiT DNA arrays were diluted 25-fold in Opti-MEM (without serum or phenol red) to a final concentration of 0.0004 μg/μL and 20 μL of the diluted DNAs were transferred into new 96-well plates. Next, promoterless carrier DNA (1 μg/μL) was diluted 25-fold (0.04 μg/μL) and then dispensed into the diluted arrays at 20 μL/well. Following brief mixing, Viafect transfection reagent (Promega) diluted 16-fold into Opti-MEM was dispensed into the plates at 40 μL/well. After mixing by pipetting, plates were incubated for 10 min on the pipetting station deck. The DNA-transfection reagent complexes were then added to plates containing cells. To facilitate the screen, 10 μL of DNA-transfection reagent complexes were added in duplicates to the top 4 and bottom 4 rows, resulting in two identical 48-well arrays per plate. Plates with transfected cells were incubated for 18–20 h at 37 °C/5% CO2. A screen of each tracer across the entire library using two different concentrations requires duplicate plates of transfected cells. Depending on the number of tracers being screened, transfections can be scaled up using the same ratios. The next day, for each tracer, four 20× screening solutions in tracer dilution buffer (Promega) were prepared: two duplicates at final concentration of 20 μM and two duplicates at a final concentration of 2 μM. A competing unmodified compound was added to one of each duplicate at a final concentration of 400 μM. The four resulting solutions were diluted 4-fold in Opti-MEM without serum or phenol red to generate 5× solutions (5 µM and 0.5 µM tracer +/− 100 μM competing compound). To screen the library, a BioTek MultiFlo FX liquid dispenser was used to dispense 22.5 µL of tracer solution to the top 4 rows and 22.5 µL tracer + competing compound solution to the 4 bottom rows. Plates were briefly mixed on an orbital shaker and incubated for 1.5 h at room temperature. […]

[2] = target: T2, NMUR1 (Homo sapiens, UniProt Q9HB89); test: NanoBRET screen HiBiT-NMUR1 in HEK293
T2 construct: purchased Promega (in-house HiBiT-GPCR construct library, NanoBRET)
T2 sequence (Q9HB89 1-426): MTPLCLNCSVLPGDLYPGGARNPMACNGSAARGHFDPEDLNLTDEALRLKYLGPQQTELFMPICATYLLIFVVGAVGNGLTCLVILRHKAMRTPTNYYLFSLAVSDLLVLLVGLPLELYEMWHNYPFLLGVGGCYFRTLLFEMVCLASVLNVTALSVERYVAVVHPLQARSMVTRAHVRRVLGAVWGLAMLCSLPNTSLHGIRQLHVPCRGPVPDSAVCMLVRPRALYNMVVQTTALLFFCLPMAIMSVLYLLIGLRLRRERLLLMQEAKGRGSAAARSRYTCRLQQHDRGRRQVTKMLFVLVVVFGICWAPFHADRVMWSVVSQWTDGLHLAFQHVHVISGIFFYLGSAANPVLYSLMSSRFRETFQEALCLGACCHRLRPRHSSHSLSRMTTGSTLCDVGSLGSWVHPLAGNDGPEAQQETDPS
Protocol: as §1, §2

[3] = target: T3, CXCR1 (Homo sapiens, UniProt P25024); test: NanoBRET screen HiBiT-CXCR1 in HEK293
T3 construct: purchased Promega (in-house HiBiT-GPCR construct library, NanoBRET)
T3 sequence (P25024 1-350): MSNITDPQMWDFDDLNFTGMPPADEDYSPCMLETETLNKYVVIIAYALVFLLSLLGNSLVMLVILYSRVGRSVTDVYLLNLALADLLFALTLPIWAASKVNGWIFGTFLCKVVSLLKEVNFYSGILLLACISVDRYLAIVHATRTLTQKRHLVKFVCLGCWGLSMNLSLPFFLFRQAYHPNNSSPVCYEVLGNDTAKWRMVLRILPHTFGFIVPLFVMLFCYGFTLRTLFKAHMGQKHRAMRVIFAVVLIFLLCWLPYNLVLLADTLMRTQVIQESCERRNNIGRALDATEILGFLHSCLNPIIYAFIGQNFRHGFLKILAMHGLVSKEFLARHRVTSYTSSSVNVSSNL
Protocol: as §1, §2

Row | Structure (SMILES) | NanoBRET Fold Response ([1]; FZD9, tracer 0.1μM) | NanoBRET Fold Response ([1]; FZD9, tracer 1μM) | NanoBRET Fold Response ([2]; NMUR1, tracer 0.1μM) | NanoBRET Fold Response ([2]; NMUR1, tracer 1μM) | NanoBRET Fold Response ([3]; CXCR1, tracer 0.1μM) | NanoBRET Fold Response ([3]; CXCR1, tracer 1μM) | further results
1 | O=C(CCc1ccc2n1[B-](F)(F)[N+]1=C(c3ccc[nH]3)C=CC1=C2)NCCOCCOCCNC(=O)OCCOCCN1CCN(C2=Nc3ccccc3Sc3ccccc32)CC1 [Quetiapine-a-2-NB590] | 0.84 | 0.78 | 1.01 | 0.81 | 0.98 | 0.95 | –
2 | O=C(CCOCCOCCOCCOCCNC(=O)CCc1ccc2n1[B-](F)(F)[N+]1=C(c3ccc[nH]3)C=CC1=C2)NCCCN1CCN(C2=Nc3cc(Cl)ccc3Nc3ccccc32)CC1 [Clozapine-a-2-NB590] | – | – | – | – | – | – | NanoBRET Fold Response ([1]; FZD9, 0.1μM tracer): 1.00; NanoBRET Fold Response ([1]; FZD9, 1μM tracer): 1.39; NanoBRET Fold Response ([2]; NMUR1, 0.1μM tracer): 1.14; NanoBRET Fold Response ([2]; NMUR1, 1μM tracer): 1.16; NanoBRET Fold Response ([3]; CXCR1, 0.1μM tracer): 0.99; NanoBRET Fold Response ([3]; CXCR1, 1μM tracer): 0.94
3 | N#CN=C(NCCCOc1cccc(CN2CCCCC2)c1)NCCNC(=O)CCOCCOCCOCCOCCNC(=O)CCc1ccc2n1[B-](F)(F)[N+]1=C(c3ccc[nH]3)C=CC1=C2 [Aminopotentidine-2-NB590] | 1.08 | 1.01 | 1.05 | 0.98 | 1.03 | 0.99 | –
4 | O=C(CCc1ccc2n1[B-](F)(F)[N+]1=C(c3ccc[nH]3)C=CC1=C2)NCc1ccc(C(=O)NCCOCCOCCNCC(O)COc2cccc3ccccc23)cc1 (stereo not drawn) [Propranolol-3-NB590] | – | – | – | – | – | – | NanoBRET Fold Response ([1]; FZD9, 0.1μM): 0.98; NanoBRET Fold Response ([1]; FZD9, 1μM): 1.09; NanoBRET Fold Response ([2]; NMUR1, 0.1μM): 1.01; NanoBRET Fold Response ([2]; NMUR1, 1μM): 1.00; NanoBRET Fold Response ([3]; CXCR1, 0.1μM): 1.02; NanoBRET Fold Response ([3]; CXCR1, 1μM): 1.00
5 | O=C(CCc1ccc2n1[B-](F)(F)[N+]1=C(c3ccc[nH]3)C=CC1=C2)NCc1ccc(C(=O)NCCOCCC(=O)N[C@@H]2CC[C@@]3(O)[C@H]4Cc5ccc(O)c6c5[C@@]3(CCN4CC3CC3)[C@H]2O6)cc1 [Naltrexone-3-NB590] | 1.17 | 0.96 | 0.85 | 1.07 | 0.95 | 0.75 | –
6 | COc1ccccc1N1CCN(CCCCN2C(=O)c3ccc(CNC(=O)CCOCCNC(=O)c4ccc(CNC(=O)CCc5ccc6n5[B-](F)(F)[N+]5=C(c7ccc[nH]7)C=CC5=C6)cc4)cc3C2=O)CC1 [NAN-190-3-NB590] | 0.94 | 1.18 | 1.03 | 0.96 | 0.93 | 0.83 | –
7 | Cc1cc2c(s1)Nc1ccccc1N=C2N1CCN(CCCNC(=O)CCOCCOCCOCCOCCNC(=O)CCc2ccc3n2[B-](F)(F)[N+]2=C(c4ccc[nH]4)C=CC2=C3)CC1 [Olanzapine-a-2-NB590] | 0.95 | 0.95 | 0.98 | 1.00 | 1.00 | 0.99 | –
8 | CCCn1c(=O)c2[nH]c(-c3ccc(OCC(=O)NCCNC(=O)CCOCCNC(=O)c4ccc(CNC(=O)CCc5ccc6n5[B-](F)(F)[N+]5=C(c7ccc[nH]7)C=CC5=C6)cc4)cc3)nc2n(CCC)c1=O [XAC-3-NB590] | 1.00 | 1.07 | 0.91 | 1.00 | 1.05 | 0.91 | –
9 | COc1ccc2c(n1)c(CCNC(C)=O)cn2CCNC(=O)CCc1ccc2n1[B-](F)(F)[N+]1=C(c3ccc[nH]3)C=CC1=C2 [Azamelatonin-1-NB590] | – | – | – | – | – | – | NanoBRET Fold Response ([1]; 0.1μM tracer): 1.17; NanoBRET Fold Response ([1]; 1μM tracer): 1.15; NanoBRET Fold Response ([2]; 0.1μM tracer): 0.78; NanoBRET Fold Response ([2]; 1μM tracer): 0.97; NanoBRET Fold Response ([3]; 0.1μM tracer): 0.88; NanoBRET Fold Response ([3]; 1μM tracer): 1.15
